Laboratory results reported in patent US6706663B2, “Herbicidal 3-heterocyclic substituted benzisothiazole and benzisoxazole compounds” (Wyeth, priority 2000, dated 2004).

Columns and labels:
[1] = test system: IPOHE (Ipomoea hederacea); assay: Preemergence herbicidal evaluation; format: in vivo, (L.) Jacq.; conditions: rated 4-5 weeks after treatment
[2] = test system: ECHORC (Echinochloa oryzoides); assay: Flooded paddy, postemergence weed control; format: in vivo, Echinochloa oryzoides (Ard.) Fritsch.; conditions: postemergence weeds, rated 3-4 weeks after treatment
Source text: (§1) Results of herbicide evaluation are expressed on a rating scale (0-9). The scale is based upon a visual observation of plant stand, vigor, malformation, size, chlorosis and overall plant appearance as compared with a control.
(§2) Plastic containers containing weeds which are 3 to 5 cm tall and rice seedlings at the 1.5 to 2.5 leaf stage are flooded with water. The water is maintained at 1.5 to 3 cm above the soil surface for the duration of the experiment. Test compounds are applied as aqueous/acetone mixtures 50/50 v/v directly into the flood water to provide the equivalent of about 0.0320 to 0.2500 kg/ha of active ingredient. The treated containers are placed on greenhouse benches and cared for in accordance with conventional greenhouse procedures. Three to four weeks after treatment, the test is terminated and each container is examined and herbicidal effect rated according to the rating system provided in Example 87. The compounds evaluated are identified in Example 87 and plant species used are identified in Example 89.

[3] = test system: ZEAMX (Corn, Field); assay: Preemergence herbicidal evaluation; format: in vivo, Zea mays, L.; conditions: rated 4-5 weeks after treatment
[4] = test system: CYPIR (Cyperus iria); assay: Flooded paddy, postemergence weed control; format: in vivo; conditions: 0.1250 kg/ha into flood water; postemergence weeds; rated 3-4 weeks after treatment
Source text: as §1, §2

[5] = test system: CYPSE (Cyperus serotinus); assay: Flooded paddy, postemergence weed control; format: in vivo, Rottb.; conditions: postemergence weeds, rated 3-4 weeks after treatment
Source text: as §1, §2

[6] = test system: SETVI (Setaria viridis); assay: Postemergence herbicidal evaluation; format: in vivo, (L.) Beau; conditions: postemergence
Procedure, shortened: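 Ratings use a 0-9 visual scale covering stand, vigor, malformation, size, chlorosis and appearance versus a control, scored 4-5 weeks post-spray. Roughly two-week-old seedlings received about 0.0040-1.000 kg/ha active, applied in 50/50 acetone/water with 0.5% TWEEN 20. Multiple tests per compound were averaged.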

[7] = test system: CYPIR (Cyperus iria); assay: Flooded paddy, preemergence weed control; format: in vivo; conditions: rated 3-4 weeks after treatment, 0-9 rating scale
Procedure, shortened: (§3)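 Visual 0–9 ratings versus controls scored stand, vigor, malformation, size, chlorosis and overall appearance. Plants grew from seeds or propagating organs sown 0.5 cm deep in silt loam, with water held 1.5–3 cm above the soil for the whole test under greenhouse care.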

[8] = test system: GLXMAW (Soybean, Williams); assay: Postemergence herbicidal evaluation; format: in vivo, Glycine max, (L.) Merr. cv Williams; conditions: postemergence
Procedure, shortened: (§4)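 Seedlings grown about two weeks in flats, sprayed, then kept under standard greenhouse care. Rated visually 4–5 weeks after treatment on a 0–9 scale (stand, vigour, malformation, size, chlorosis, overall appearance) relative to untreated control; repeat tests averaged.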

[9] = test system: GLXMAW (Soybean, Williams); assay: Preemergence herbicidal evaluation; format: in vivo, Glycine max, (L.) Merr. cv Williams; conditions: rated 4-5 weeks after treatment
[10] = test system: SETVI (Setaria viridis); assay: Preemergence herbicidal evaluation; format: in vivo, (L.) Beau; conditions: rated 4-5 weeks after treatment
Procedure, shortened: (§5)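 Visual 0–9 rating versus control (stand, vigor, malformation, size, chlorosis, overall appearance), scored four to five weeks post-treatment. Preemergence spray of aqueous acetone solution onto freshly seeded soil cups; plants grown under conventional greenhouse care.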

[11] = test system: ECHCG (Echinochloa crus-galli); assay: Preemergence herbicidal evaluation; format: in vivo, (L.) Beau; conditions: rated 4-5 weeks after treatment
Procedure, shortened: as §5

[12] = test system: MOOVA (Monochoria vaginalis); assay: Flooded paddy, preemergence weed control; format: in vivo, Presl.; conditions: rated 3-4 weeks after treatment, 0-9 rating scale
Procedure, shortened: as §3

[13] = test system: MOOVA (Monochoria vaginalis); assay: Flooded paddy, postemergence weed control; format: in vivo, Presl.; conditions: postemergence weeds, rated 3-4 weeks after treatment
Source text: as §1, §2

[14] = test system: SAGPY (Sagittaria pygmaea); assay: Flooded paddy, postemergence weed control; format: in vivo, L.; conditions: postemergence weeds, rated 3-4 weeks after treatment
Source text: as §1, §2

[15] = test system: ORYSAT (Rice, Tebonnet); assay: Flooded paddy, post-transplant and postemergence rice tolerance; format: in vivo, Oryza sativa, (L.) Tebonnet; conditions: post-transplant rice, rated 3-4 weeks after treatment
Source text: as §1, §2

[16] = test system: GALAP (Galium aparine); assay: Postemergence herbicidal evaluation; format: in vivo; conditions: postemergence
Procedure, shortened: as §4

Cn1c(C(F)(F)F)cc(=O)n(-c2ccc3snc(-c4sccc4Cl)c3c2)c1=O [Compound 52, 3-[3-(3-chloro-2-thienyl)-1,2-benzisothiazol-5-yl]-1-methyl-6-(trifluoromethyl)uracil] was tested, and the “Preemergence herbicidal rating IPOHE” value ([1]; Rate 0.0620 kg/ha) was 2.0, the “Preemergence herbicidal rating IPOHE” value ([1]; Rate 0.1250 kg/ha) was 3.0 and the “Preemergence herbicidal rating IPOHE” value ([1]; Rate 0.2500 kg/ha) was 6.0. The “herbicide rating (0-9) ECHORC” value ([2]; 0.0320 kg/ha into flood water) was 6.0, the “herbicide rating (0-9) ECHORC” value ([2]; 0.0620 kg/ha into flood water) was 9.0 and the “herbicide rating (0-9) ECHORC” value ([2]; 0.1250 kg/ha into flood water) was 8.0. For the same compound, the “Preemergence herbicidal rating ZEAMX” value ([3]; Rate 0.0620 kg/ha) was 1.5, the “Preemergence herbicidal rating ZEAMX” value ([3]; Rate 0.1250 kg/ha) was 3.5 and the “Preemergence herbicidal rating ZEAMX” value ([3]; Rate 0.2500 kg/ha) was 7.0. For the same compound, the “herbicide rating (0-9) CYPIR” value [4] was 9.0, the “herbicide rating (0-9) CYPSE” value ([5]; 0.0620 kg/ha into flood water) was 7.0 and the “herbicide rating (0-9) CYPSE” value ([5]; 0.1250 kg/ha into flood water) was 8.0. For the same compound, the SETVI herbicidal rating ([6]; rate 0.0320 kg/ha) was 9.0, the SETVI herbicidal rating ([6]; rate 0.0620 kg/ha) was 9.0 and the SETVI herbicidal rating ([6]; rate 0.1250 kg/ha) was 9.0. For the same compound, the “herbicidal rating, CYPIR” value ([7]; rate 0.0080 kg/ha) was 9.0, the “herbicidal rating, CYPIR” value ([7]; rate 0.0320 kg/ha) was 9.0 and the “herbicidal rating, CYPIR” value ([7]; rate 0.1250 kg/ha) was 9.0. For the same compound, the GLXMAW herbicidal rating ([8]; rate 0.0320 kg/ha) was 7.5, the GLXMAW herbicidal rating ([8]; rate 0.0620 kg/ha) was 7.0 and the GLXMAW herbicidal rating ([8]; rate 0.1250 kg/ha) was 8.5. For the same compound, the “Preemergence herbicidal rating GLXMAW” value ([9]; Rate 0.0620 kg/ha) was 1.5, the “Preemergence herbicidal rating GLXMAW” value ([9]; Rate 0.1250 kg/ha) was 4.0 and the “Preemergence herbicidal rating GLXMAW” value ([9]; Rate 0.2500 kg/ha) was 9.0. For the same compound, the “Preemergence herbicidal rating SETVI” value ([10]; Rate 0.0620 kg/ha) was 9.0, the “Preemergence herbicidal rating SETVI” value ([10]; Rate 0.1250 kg/ha) was 9.0 and the “Preemergence herbicidal rating SETVI” value ([10]; Rate 0.2500 kg/ha) was 9.0. For the same compound, the “Preemergence herbicidal rating ECHCG” value ([11]; Rate 0.0620 kg/ha) was 7.5, the “Preemergence herbicidal rating ECHCG” value ([11]; Rate 0.1250 kg/ha) was 8.5 and the “Preemergence herbicidal rating ECHCG” value ([11]; Rate 0.2500 kg/ha) was 9.0. The “herbicidal rating, MOOVA” value ([12]; rate 0.0080 kg/ha) was 9.0, the “herbicidal rating, MOOVA” value ([12]; rate 0.0320 kg/ha) was 9.0 and the “herbicidal rating, MOOVA” value ([12]; rate 0.1250 kg/ha) was 9.0. The “herbicide rating (0-9) MOOVA” value ([13]; 0.0320 kg/ha into flood water) was 2.0, the “herbicide rating (0-9) MOOVA” value ([13]; 0.0620 kg/ha into flood water) was 2.0 and the “herbicide rating (0-9) MOOVA” value ([13]; 0.1250 kg/ha into flood water) was 9.0. The “herbicide rating (0-9) SAGPY” value ([14]; 0.0320 kg/ha into flood water) was 0.0, the “herbicide rating (0-9) SAGPY” value ([14]; 0.0620 kg/ha into flood water) was 0.0 and the “herbicide rating (0-9) SAGPY” value ([14]; 0.1250 kg/ha into flood water) was 4.0. The “herbicide rating (0-9) ORYSAT (rice tolerance)” value (“herbicide rating (0-9) ORYSAT” below) ([15]; 0.0320 kg/ha into flood water) was 4.0, the “herbicide rating (0-9) ORYSAT” value ([15]; 0.0620 kg/ha into flood water) was 6.0 and the “herbicide rating (0-9) ORYSAT” value ([15]; 0.1250 kg/ha into flood water) was 7.0. It also gave a GALAP herbicidal rating ([16]; rate 0.0320 kg/ha) of 5.0, a GALAP herbicidal rating ([16]; rate 0.0620 kg/ha) of 3.0 and a GALAP herbicidal rating ([16]; rate 0.1250 kg/ha) of 7.0.
